Results taken from patent publication US20240208998A1, “COMPOUNDS FOR USE IN THE TREATMENT OF HYPERPROLIFERATIVE DISORDERS” (FUNDACIÓ PRIVADA INSTITUT D'INVESTIGACIÓ ONCOLÓGICA DE VALL …, priority 2021, published 2024).

Columns and labels:
HL60 cell line = assay: Antiproliferative activity on HL60 cell line (CellTiter-Glo); assay type: cell-based; conditions: Homo sapiens, HL-60; HL60, 72 h of treatment
Protocol: The human leukaemic cell line HL60 was grown in suspension in RPMI 1640 medium containing 10% (v/v) FBS and 1% (v/v) P/S (Life Technologies). […] Leukaemia cells were suspended at a density of 2×10^5 cells/mL in complete RPMI 1640 medium and 25 μL were seeded in each well (5×10^3 final total cells/well). A 10 μM solution of the compounds of examples 1, 12 and 21, and a 25 μM solution of all other compounds were prepared in complete medium, and then serially diluted (1:2) (as specified in Table 3 below). A solution of complete medium with DMSO was used as a vehicle control.
Twenty-five microliters of each serially diluted compound solution were added to the corresponding wells of the plate (50 μL of final volume/well). After 48 h of treatment, 50 μL of fresh 2X serially diluted compound solution was added to their corresponding wells (100 μL of final volume/well). After twenty-four additional hours, an equal volume (100 μL) of CellTiter-Glo Reagent (Promega) was added to each well, plates were shaken during 2 min and incubated at rt for 10 min. Luminescence was recorded using a Spark multimode microplate reader and an integration time of 1 s per well.

TET2 = TET2 (Homo sapiens (Human), UniProt Q6N021); assay: Determination of TET2 activity in cell (5-hmC dot-blot, TET2-transfected HEK293T cells); assay type: cell-based; conditions: 10 μM compound, HEK293T transfected with pCMV6-TET2, 48 h after transfection; in reference to vehicle, corrected with example 1 condition
Protocol: The HEK293T cell line was grown in Dulbecco's Modified Eagle Medium (DMEM) containing 10% (v/v) fetal bovine serum (FBS) and 1% (v/v) penicillin-streptomycin (P/S).
Twenty-four hours prior transfection, 3×10^6 HEK293T cells were seeded in p100 dishes previously coated with 0.001% of poly (1-lysine). One hour before transfection, a 10 μM solution of each compound was prepared in complete medium and 9 mL was added by medium replacement in one p100 dish (by duplicate). A solution of complete medium with DMSO was used as a vehicle control. Then, a transfection mix was prepared diluting 8 μg of pCMV6-TET2 expression vector (ID: RC226438, Origene) with 32 μg of polyethylenimine (PEI 25000, Polysciences, Inc.) in a 150 mM NaCl solution per p100 plate. After 15 min of incubation at rt, 1 mL of the transfection mix was added to each p100 plate. Next day, medium was replaced with a fresh diluted compound solution (10 mL/p100 dish). Forty-eight hours after transfection, cells were trypsinized and pelleted. Each pellet was suspended in 500 μL of DNA lysis buffer (50 mM Tris-HCl pH 8, 10 mM EDTA pH 8, 0.1% Triton X-100, 0.5% Tween-20, 400 μg/mL Proteinase K, 50 μg/mL RNAse), and incubated overnight at 56° C. in a thermal mixer. Next day, genomic DNA (gDNA) was extracted from each sample following a standard phenol-chloroform extraction method.
For each sample, 2 μg of gDNA was diluted in 50 μL of H2O. Then, 50 μL of 2X Denature solution (0.8 M NaOH, 20 mM EDTA) was added to each sample and incubated at 95° C. for 10 min. Samples were immediately placed on ice to cool and mixed with 100 μL of cold 2X Neutralize buffer (2 M ammonium acetate pH 7). Then, samples were incubated on ice for 10 min. DNA two-fold serial dilutions were prepared by mixing 100 μL of each sample with 100 μL of H2O in the next well, and so on. A total of 7 serial dilutions were set up. One hundred microliters of each sample and their respective dilutions were spotted on a positively charged nylon membrane (Amersham Hybond-N+, GE healthcare) in an assembled Bio-Dot apparatus (Bio-Rad). Samples were washed adding 400 μL of 0.4 M NaOH in each well. Then, blotted membrane was removed from the Bio-Dot apparatus and washed with 2×SSC buffer (0.3 M NaCl, 30 mM sodium citrate) for 5 min, air dried for 15 min, and UV-crosslinked (energy 120,000 μJ/cm^2) for 1 min. Afterwards, the blotted membrane was blocked with Blocking solution (5% non-fat milk, 0.1% Tween-20 in PBS1X) for 1 h at rt. Then, the membrane was incubated with the 5-hmC (5-hydroxymethylcytosine) primary antibody (#39769, Active Motif) diluted 1/10,000 in Blocking solution for 1 h at rt. Next, membrane was washed three times for 5 min in PBS1X and incubated with the anti-rabbit-HRP secondary antibody diluted 1/5,000 in blocking solution for 1 h at rt. Finally, the membrane was washed three times for 5 min in PBS1X, developed with SuperSignal West Pico Chemiluminescent Substrate (ThermoFisher Scientific), and exposed to autoradiography films (Fujifilm).
Each dot-blot membrane allows the evaluation of up to 6 different conditions (in duplicate) at the same time. Among these 6 different conditions there is always the condition of the vehicle and our compound of example 1, so in the end we evaluated 4 new compounds per membrane. The density intensity of each dot was quantified using the Image J software. […] Fold-change was calculated in reference to the vehicle condition and corrected with the example 1 condition for each dot-blot membrane.

| melting point [°C] | EC50 (HL60 cell line) [nM] | Fold change (amount of 5-hmC) (TET2) | SMILES |
| --- | --- | --- | --- |
| 246 to 248 | 1400 | 11.6 | Cc1[nH]c2ccccc2c1-c1csc(NC(=O)Cc2c[nH]c3ccccc23)n1 [Example 13, 2-(1H-indol-3-yl)-N-[4-(2-methyl-1H-indol-3-yl)thiazol-2-yl]acetamide] |
| 145 to 149 | 63 | 15.3 | Cc1[nH]c2ccccc2c1-c1csc(NC(=O)Cc2c[nH]c3ccc(O)cc23)n1 [Example 21, 2-(5-hydroxy-1H-indol-3-yl)-N-[4-(2-methyl-1H-indol-3-yl)thiazol-2-yl]acetamide] |
| 169 to 172 | 2300 | 9.2 | Cc1[nH]c2ccccc2c1-c1nc(NC(=O)Cc2cn3ccsc3n2)sc1C [Example 4, 2-(imidazo[2,1-b]thiazol-6-yl)-N-[5-methyl-4-(2-methyl-1H-indol-3-yl)thiazol-2-yl]acetamide] |
| 230 to 232 | 497 | 16.0 | Cc1[nH]c2ccccc2c1-c1csc(NC(=O)Cc2c[nH]c3ccc(F)cc23)n1 [Example 12, 2-(5-fluoro-1H-indol-3-yl)-N-[4-(2-methyl-1H-indol-3-yl)thiazol-2-yl]acetamide] |
| 212 to 214 | 809 | 8.4 | Cc1[nH]c2ccccc2c1-c1csc(NC(=O)Cc2cc(Br)cs2)n1 [Example 19, 2-(4-bromothiophen-2-yl)-N-[4-(2-methyl-1H-indol-3-yl)thiazol-2-yl]acetamide] |
